# In patent publication US20120283303A1, “USE OF N-AMINOIMIDAZOLE CYTOPROTECTIVE COMPOUNDS FOR TREATING CELL DEATH AND/OR GSK-3 MEDIATED DISEASES” (K.U.LEUVEN RESEARCH AND DEVELOPMENT, priority 2006, published 2012):
# System: Peripheral blood mononuclear cells (PBMCs)
# Experiment: PBMC survival (viable cell count, trypan blue exclusion)
# Format: cell-based, human
# Details: NAIM alone, compared to control conditions
# Experimental: Peripheral blood mononuclear cells (PBMCs) from healthy donors were isolated by density centrifugation (Lymphoprep; Nycomed Pharma, AS Diagnostics, Oslo, Norway). For the “non-stimulated” conditions (NS) the cells were cultivated at a density of 1,750,000 cells per ml in RPMI-1640 supplemented with 2 mM L-glutamine, 15% FCS and 0.1% NaHCO3 for 3 days. […] At day 0 of the experiment, the NS and activated cells (PHA-stimulated blasts) were washed with PBS and were pelleted by centrifugation. […] The number of viable cells was counted based on the trypan blue exclusion method. The evolution of the number of cells was followed over a period of approximately 2 weeks.
row,Compound,"PBMC cell viability, NAIM as such"
1,Cc1nc(SC(O)C(O)C(O)C(O)C(O)CO)n(Nc2cccc3ccccc23)c1-c1ccccc1 (stereo not shown) [HER/NR953],did not affect the cell viability

# System: M17-TAU P301L cells
# Experiment: TAU cytotoxicity (LDH leakage) in retinoic acid incubated M17-TAU P301L cells
# Format: cell-based, human
# Details: Homo sapiens, 168 h, reduction of LDH activity of retinoic acid incubated M17-TAU P301L cells, 7 days; read-out: IC50
# Excerpt: An TAU expression plasmid was constructed by sub-cloning the cDNA of human TAU-P301L (encoding for TAU with proline 301 substituted by a leucine residue) into mammalian expression vector pcDNA3.1 resulting in plasmid pcDNA3.1-TAU P301L. Plasmids pcDNA3.1 and pcDNA3.1-TAU P301L were transfected to human neuroblastoma cells ([…]; ATCC No. CRL-2267) and independent clonal lines with the plasmids stably integrated into the genome were selected. […] Expression of the TAU P301L genes in the cell lines was confirmed by Western analysis.
# In degenerated or dead cells, lactate dehydrogenase (LDH) is leaked out of the cells into the extracellular environment due to a loss of plasma-membrane integrity. This principle was used to determine cytotoxicity by quantifying the level of leaked LDH into the growth medium.
# The detailed method for determining TAU cytotoxicity was as follows: From appropriate precultures of M17-3.1 and M17-TAU(P301L) cells were seeded at 2500 cells/cm2 in Optimem Reduced Serum without phenol red (Gibco, Cat. 31985-047) supplemented with 1% fetal calf serum, 1 mM sodium pyruvate, 1× non-essential amino acids, 500 μg/ml G418 0.5× antibiotic/antimycotic. After 3 hours of incubation at 37° C./5% CO2 1 volume of Optimem Reduced Serum (same as described above; except without fetal calf serum) supplemented with 2.5 μM retinoic acid (RA) was added. The cells were further incubated for 7 days. Subsequently, LDH activity was determined using Promega Cytotox 96 Non-Radioactive cytotoxicity assay, (Cat. G1780) according the supplier's instructions.
# The M17-TAU P301L cell line made it possible to assess the ability of the compounds of this invention to counteract TAU cytotoxicity. […] Potency of the relevant compounds was determined by testing them at different concentrations ranging from non-effective (thus at a relatively low concentration) to an effective concentration for their ability to reduce LDH activity of retinoic acid incubated M17-TAU P301L cells.
row,Compound,IC50 [µg/mL]
1,Cc1[nH]c(=S)n(Nc2ccccc2Cl)c1-c1ccccc1 [HER/NR723],0.024
2,Cc1[nH]c(=S)n(Nc2cccc(Cl)c2)c1-c1ccccc1 [HER/NR724],0.34
3,Cc1[nH]c(=S)n(Nc2ccc(Cl)cc2)c1-c1ccccc1 [HER/NR725],0.176
4,Cc1ncn(Nc2cccc(Cl)c2)c1-c1ccccc1 [HER/NR746],0.081
5,CSc1nc(C)c(-c2ccccc2)n1Nc1cccc(Cl)c1 [HER/NR747],0.256
6,Cc1cccc(Nn2c(SCc3ccccc3)nc(C)c2-c2ccccc2)c1 [HER/NR748],0.325
7,Cc1[nH]c(=S)n(Nc2cccc(Cl)c2)c1-c1cccc(Br)c1 [HER/NR759],0.174
8,Cc1[nH]c(=S)n(Nc2cccc(Cl)c2)c1-c1ccc(Br)cc1 [HER/NR760],0.12
9,Cc1[nH]c(=S)n(Nc2cccc(Cl)c2)c1-c1cccc(Cl)c1 [HER/NR761],0.11
10,Cc1[nH]c(=S)n(Nc2cccc(Cl)c2)c1-c1ccc(Cl)cc1 [HER/NR762],0.061
11,COc1ccc(-c2c(C)[nH]c(=S)n2Nc2cccc(Cl)c2)cc1 [HER/NR763],0.456
12,Cc1[nH]c(=S)n(Nc2cccc(Cl)c2)c1-c1ccc(Cl)cc1Cl [HER/NR766],0.192
13,Cc1ccc(Nn2c(-c3ccccc3)c(C)[nH]c2=S)cc1C [HER/NR767],0.146
14,Cc1[nH]c(=S)n(Nc2cccc(Br)c2)c1-c1ccccc1 [HER/NR768],0.44
15,Cc1[nH]c(=S)n(Nc2cc(Cl)ccc2Cl)c1-c1ccccc1 [HER/NR769],0.434
16,Cc1[nH]c(=S)n(Nc2cccc(F)c2)c1-c1ccccc1 [HER/NR770],1.46
17,Cc1ccc(Nn2c(-c3ccccc3)c(C)[nH]c2=S)cc1Cl [HER/NR771],0.293
18,Cc1[nH]c(=S)n(Nc2ccccc2)c1-c1ccccc1 [HER/NR772],0.568
19,Cc1[nH]c(=S)n(Nc2ccc(F)cc2)c1-c1ccccc1 [HER/NR773],0.426
20,Cc1[nH]c(=S)n(Nc2cccc([N+](=O)[O-])c2)c1-c1ccccc1 [HER/NR774],2.13
21,Cc1cccc(Nn2c(-c3ccccc3)c(C)[nH]c2=S)c1 [HER/NR775],0.321
22,Cc1ncn(Nc2ccccc2)c1-c1ccccc1 [HER/NR776],0.455
23,Cc1ncn(Nc2cccc(Cl)c2)c1-c1cccc(Cl)c1 [HER/NR777],0.107
24,Cc1ncn(Nc2ccc(F)cc2)c1-c1ccccc1 [HER/NR786],0.191
25,Cc1cccc(Nn2c(-c3ccccc3)c(C(C)C)[nH]c2=S)c1 [HER/NR787],0.4
26,CCc1[nH]c(=S)n(Nc2cccc(C)c2)c1-c1ccccc1 [HER/NR788],0.341
27,CCc1[nH]c(=S)n(Nc2cccc(Cl)c2)c1-c1ccccc1 [HER/NR789],0.184

row,Compound,IC50 [µg/mL]
1,Cc1cccc(Nn2cnc(C)c2-c2ccccc2)c1 [HER/NR790],0.059
2,CCc1ncn(Nc2cccc(C)c2)c1-c1ccccc1 [HER/NR791],0.046
3,Cc1cc(C)cc(Nn2c(-c3ccccc3)c(C)[nH]c2=S)c1 [HER/NR798],0.496
4,COc1cccc(Nn2c(-c3ccccc3)c(C)[nH]c2=S)c1 [HER/NR801],1.35
5,COc1cccc(Nn2cnc(C)c2-c2ccccc2)c1 [HER/NR802],1.34
6,Cc1[nH]c(=S)n(Nc2cccc(Cl)c2)c1-c1cccc(C#N)c1 [HER/NR803],0.086
7,Cc1cccc(Nn2c(-c3cccc(C#N)c3)c(C)[nH]c2=S)c1 [HER/NR804],0.154
8,Cc1ncn(Nc2cccc(Cl)c2)c1-c1cccc(C#N)c1 [HER/NR805],0.09
9,Cc1cccc(Nn2cnc(C)c2-c2cccc(C#N)c2)c1 [HER/NR806],0.141
10,Cc1cc(C)cc(Nn2cnc(C)c2-c2ccccc2)c1 [HER/NR808],0.023
11,Cc1cccc(Nn2cnc(C)c2-c2cccc(C(N)=O)c2)c1 [HER/NR809],0.33
12,Cc1[nH]c(=S)n(Nc2cccc(Cl)c2)c1-c1cccc(C(=O)O)c1 [HER/NR810],1
13,Cc1cccc(Nn2c(-c3cccc(C(=O)O)c3)c(C)[nH]c2=S)c1 [HER/NR811],1.9
14,COC(=O)c1cccc(-c2c(C)[nH]c(=S)n2Nc2cccc(Cl)c2)c1 [HER/NR812],0.328
15,Cc1[nH]c(=S)n(Nc2cccc(Cl)c2)c1-c1cccc(C(N)=O)c1 [HER/NR813],0.18
16,COC(=O)c1cccc(-c2c(C)ncn2Nc2cccc(Cl)c2)c1 [HER/NR814],0.172
17,Cc1ncn(Nc2cccc(Cl)c2)c1-c1cccc(C(=O)O)c1 [HER/NR815],0.805
18,CCc1ccc(Nn2c(-c3ccccc3)c(C)[nH]c2=S)cc1 [HER/NR861],0.106
19,CSc1ccc(Nn2c(-c3ccccc3)c(C)[nH]c2=S)cc1 [HER/NR862],0.027
20,Cc1c(-c2ccccc2)n(N(C)c2ccccc2)c(=S)n1C [HER/NR863],3.85
21,Cc1ccc(Nn2cnc(C)c2-c2ccccc2)cc1Cl [HER/NR864],0.057
22,Cc1ncn(Nc2cccc(Cl)c2)c1-c1ccc(Br)cc1 [HER/NR865],0.071
23,Cc1[nH]c(=S)n(N(C)c2ccccc2)c1-c1ccccc1 [HER/NR866],0.195
24,Cc1[nH]c(=S)n(Nc2cccc3ccccc23)c1-c1cccc(Br)c1 [HER/NR914],0.045
25,Cc1[nH]c(=S)n(Nc2cccc3ccccc23)c1-c1cccc(Cl)c1 [HER/NR915],0.037
26,Cc1nc(SC(O)C(O)C(O)C(O)C(O)CO)n(Nc2cccc3ccccc23)c1-c1ccccc1 (stereo not shown) [HER/NR953],0.052

# Same assay, conditions: reduction of LDH activity of retinoic acid incubated M17-TAU P301L cells, 7 days
row,Compound,IC50 [µg/mL]
1,Cc1ncn(Nc2cccc(Cl)c2)c1-c1cccc(Br)c1 [HER/LI412 = NR779GLUCOSE],0.216
2,Cc1ncn(Nc2cccc(Cl)c2)c1-c1cccc(Br)c1 [HER/NR779],0.022

# Molecular target: T1, GSK-3β (Homo sapiens, UniProt P49841)
# T1 construct: purchased Upstate Biotechnology
# Experiment: Radiometric kinase activity assay
# Format: biochemical
# Details: same experimental set-up as Table 1
# Experimental: (§1) GSK-3 were assayed for their ability to phosphorylate the appropriate peptide/protein substrate in the presence of 5 μg/ml NR-818 and 10 μM ATP. Using the direct radiometric approach, kinase activities were determined and expressed as % activity compared to the untreated control (Upstate Biotechnology, Lake Placid, N.Y.). Activities are given as the mean of duplicate determinations relative to control incubations in which the inhibitor was substituted with DMSO. In the following table 1 providing results for NR818, the following abbreviations are used: • CDK, cyclin-dependent kinase; • CK, casein kinase; • eEF-2K, eukaryotic elongation factor-2 kinase; • JNK, c-Jun N-terminal kinase; • MAPK, mitogen-activated protein kinase; • PKC, protein kinase C; and • PI 3-kinase, phosphatidylinositol 3-kinase.
# (§2) By using this experimental set-up, the inhibiting activity of NR953 on GSK-3 is also tested.
# T1 sequence (P49841 whole entry): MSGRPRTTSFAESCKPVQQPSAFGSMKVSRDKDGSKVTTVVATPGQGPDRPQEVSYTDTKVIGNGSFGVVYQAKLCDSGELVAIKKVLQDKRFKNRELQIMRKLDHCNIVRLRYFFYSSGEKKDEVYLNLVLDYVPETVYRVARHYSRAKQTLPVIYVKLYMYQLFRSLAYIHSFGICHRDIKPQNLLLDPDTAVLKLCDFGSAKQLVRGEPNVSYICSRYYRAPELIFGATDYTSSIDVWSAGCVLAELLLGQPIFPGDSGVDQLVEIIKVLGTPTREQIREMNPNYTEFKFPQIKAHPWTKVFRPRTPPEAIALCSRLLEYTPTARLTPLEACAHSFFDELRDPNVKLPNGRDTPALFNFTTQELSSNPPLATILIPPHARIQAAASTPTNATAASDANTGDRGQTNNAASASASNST
row,Compound,IC50 on GSK-3β
1,Cc1nc(SC(O)C(O)C(O)C(O)C(O)CO)n(Nc2cccc3ccccc23)c1-c1ccccc1 (stereo not shown) [HER/NR953],low micro-molar concentrations

# Molecular target: T2, GSK-3α (Homo sapiens, UniProt P49840)
# T2 construct: purchased Upstate Biotechnology
# Experiment: Radiometric kinase activity assay
# Format: biochemical
# Details: same experimental set-up as Table 1
# Experimental: as §1, §2
# T2 sequence (P49840 whole entry): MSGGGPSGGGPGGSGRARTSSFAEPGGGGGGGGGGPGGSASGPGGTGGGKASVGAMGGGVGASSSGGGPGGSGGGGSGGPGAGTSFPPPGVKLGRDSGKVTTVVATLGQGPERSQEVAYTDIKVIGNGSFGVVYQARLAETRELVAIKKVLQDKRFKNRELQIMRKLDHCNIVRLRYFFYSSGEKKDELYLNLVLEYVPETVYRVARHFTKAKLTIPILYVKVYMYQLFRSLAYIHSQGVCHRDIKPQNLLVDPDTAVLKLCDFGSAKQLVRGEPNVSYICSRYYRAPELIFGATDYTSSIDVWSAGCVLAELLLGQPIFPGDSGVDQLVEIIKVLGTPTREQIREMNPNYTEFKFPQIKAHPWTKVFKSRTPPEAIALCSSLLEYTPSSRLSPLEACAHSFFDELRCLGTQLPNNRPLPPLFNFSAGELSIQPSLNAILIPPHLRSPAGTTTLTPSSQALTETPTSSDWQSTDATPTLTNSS
row,Compound,IC50 on GSK-3α
1,Cc1nc(SC(O)C(O)C(O)C(O)C(O)CO)n(Nc2cccc3ccccc23)c1-c1ccccc1 (stereo not shown) [HER/NR953],low micro-molar concentrations
